Publication PMC11258615 (RSC Advances, 2024)
“Also recorded” adds a separate entry of the source.

Molecular target: mushroom tyrosinase (Agaricus bisporus, UniProt C7FF04)
Test: Kinetic analysis of tyrosinase inhibition
Conditions: L-DOPA 0.5 to 3 mM

mushroom tyrosinase, sequence (C7FF04 1-392): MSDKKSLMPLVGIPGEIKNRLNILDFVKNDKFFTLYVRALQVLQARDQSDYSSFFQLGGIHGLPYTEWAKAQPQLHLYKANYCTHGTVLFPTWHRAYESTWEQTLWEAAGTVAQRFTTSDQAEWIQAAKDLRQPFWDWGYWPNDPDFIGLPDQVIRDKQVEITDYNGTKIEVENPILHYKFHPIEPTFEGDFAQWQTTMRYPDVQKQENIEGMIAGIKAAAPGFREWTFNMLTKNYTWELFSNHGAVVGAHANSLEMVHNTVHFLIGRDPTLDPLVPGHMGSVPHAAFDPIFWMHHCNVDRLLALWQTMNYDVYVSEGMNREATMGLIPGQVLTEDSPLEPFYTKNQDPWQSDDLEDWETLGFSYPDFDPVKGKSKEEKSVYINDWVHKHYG

## Nc1ccc(-c2cc(-c3ccc(-c4cc(-c5ccc(N)cc5)nc(N)n4)cc3)nc(N)n2)cc1 [Compound 6P, 6,6′-(1,4-phenylene)bis[4-(4-aminophenyl)pyrimidin-2-amine]]
  Type of tyrosinase inhibition (Lineweaver-Burk plots): mixed-type inhibitor; also recorded: mixed-type inhibition
